Results published in patent publication US6448442B1, “Contrast media” (Amersham Health AS, priority 1999, dated 2002).

Experiment: Viscosity in aqueous solution at 20° C. (Example 82, Tables 1 and 2)
Assay type: physicochemical
Conditions: for Viscosity 350 mgI/ml (CALCULATED): calculated for 350 mgI/ml; for Viscosity at 400 mgI/ml (CALCULATED): calculated for 400 mgI/ml
Method: The viscosities in aqueous solution at 20° C. for some further compounds described above were determined and are listed in Table 2. […]

CC(O)C(=O)N(CCO)c1c(I)c(CO)c(I)c(C(=O)NCC(O)CO)c1I (centres unmarked) [Example 28, 5-[N′-(2-Hydroxyethyl)-2-hydroxypropionylamino]-3-hydroxymethyl-N-(2,3-dihydroxypropyl)-2,4,6-triiodobenzamide]
Viscosity 350 mgI/ml (CALCULATED): 9.2 mPas | Viscosity at 400 mgI/ml (CALCULATED): 14.6 mPas | Viscosity 20° C. (concentration 404 mgI/ml): 15 mPas | Viscosity (iodine concentration 404 mgI/mL): 15 mPas

O=C(NCC(O)CO)c1c(I)c(CO)c(I)c(N(CCO)C(=O)C(O)CO)c1I (centres unmarked) [Example 30, 5-[N′-(2-Hydroxyethyl)-2,3-dihyroxypropionylamino]-3-hydroxymethyl-N-(2,3-dihydroxypropyl)-2,4,6-triiodobenzamide]
Viscosity 350 mgI/ml (CALCULATED): 13.4 mPas | Viscosity at 400 mgI/ml (CALCULATED): 23.3 mPas | Viscosity 20° C. (concentration 391 mgI/ml): 21 mPas | Viscosity (iodine concentration 391 mgI/mL): 21 mPas

CC(CO)(CO)C(=O)Nc1c(I)c(CO)c(I)c(C(=O)NCC(O)CO)c1I (centres unmarked) [Example 32, 5-(3-Hydroxy-2-methyl-2-hydroxymethyl-propionylamino)-3-hydroxymethyl-N-(2,3-dihydroxypropyl)-2,4,6-triiodobenzamide]
Viscosity at 400 mgI/ml (CALCULATED): 17.4 mPas | Viscosity 20° C. (concentration 403 mgI/ml): 18 mPas | Viscosity (iodine concentration 403 mgI/mL): 18 mPas

O=C(NCC(O)CO)c1c(I)c(CO)c(I)c(NC(=O)C(CO)(CO)CO)c1I (centres unmarked) [Example 33, 5-(3-Hydroxy-2,2-dihydroxymethyl-propionylamino)-3-hydroxymethyl-N-(2,3-dihydroxypropyl)-2,46-triiodobenzamide]
Viscosity at 400 mgI/ml (CALCULATED): 22.9 mPas | Viscosity 20° C. (concentration 370 mgI/ml): 16 mPas | Viscosity (iodine concentration 370 mgI/mL): 16 mPas

O=C(NC(CO)C(O)CO)c1c(I)c(CO)c(I)c(N(CCO)C(=O)CO)c1I (centres unmarked) [Example 35, 5-[N′-(2-Hydroxyethyl)-hydroxyacetamido]-3-hydroxymethyl-N-(1,3,4-trihydroxybut-2-yl)-2,4,6-triiodobenzamide]
Viscosity 350 mgI/ml (CALCULATED): 9.6 mPas | Viscosity at 400 mgI/ml (CALCULATED): 15.5 mPas | Viscosity 20° C. (concentration 394 mgI/ml): 15 mPas | Viscosity (iodine concentration 394 mgI/mL): 15 mPas

O=C(NC(CO)C(O)CO)c1c(I)c(CO)c(I)c(N(CC(O)CO)C(=O)CO)c1I (centres unmarked) [Example 36, 5-[N′-(2,3-Dihydroxypropyl)-hydroxyacetamido]-3-hydroxymethyl-N-(1,3 4-trihydroxybut-2-yl)-2,4.6-triiodobenzamide]
Viscosity 350 mgI/ml (CALCULATED): 10.6 mPas | Viscosity at 400 mgI/ml (CALCULATED): 17.7 mPas | Viscosity 20° C. (concentration 382 mgI/ml): 15 mPas | Viscosity (iodine concentration 382 mgI/mL): 15 mPas

CC(O)C(=O)Nc1c(I)c(CO)c(I)c(C(=O)NC(CO)C(O)CO)c1I (centres unmarked) [Example 37, 5-(2-Hydroxypropionylamino)-3-hydroxymethyl-N-(1,3,4-tri-hydroxybut-2-yl)-2,4,6-triiodobenzamide]
Viscosity at 400 mgI/ml (CALCULATED): 15.6 mPas | Viscosity 20° C. (concentration 398 mgI/ml): 16 mPas | Viscosity 20° C. (concentration 458 mgI/ml): 30 mPas | Viscosity (iodine concentration 458 mgI/mL): 30 mPas

O=C(NC(CO)C(O)CO)c1c(I)c(CO)c(I)c(N(CCO)C(=O)C(O)CO)c1I (centres unmarked) [Example 39, 5-[N′-(2-Hydroxyethyl)-2,3-dihydroxypropionylamino]-3-hydroxymethyl-N-(1,3,4-trihydroxybut-2-yl)-2,4,6-triiodobenzamide]
Viscosity 350 mgI/ml (CALCULATED): 12.0 mPas | Viscosity at 400 mgI/ml (CALCULATED): 20.4 mPas | Viscosity 20° C. (concentration 372 mgI/ml): 15 mPas | Viscosity (iodine concentration 372 mgI/mL): 15 mPas

O=C(c1c(I)c(CO)c(I)c(N(CCO)C(=O)CO)c1I)N(CCO)CCO [Example 41, 5-[N′-(2-Hydroxyethyl)-hydroxyacetamido]-3-hydroxymethyl-N,N-bis(2-hydroxyethyl)-2,4,6-triiodobenzamide]
Viscosity at 400 mgI/ml (CALCULATED): 12.0 mPas | Viscosity 20° C. (concentration 508 mgI/ml): 40 mPas

O=C(Nc1c(I)c(CO)c(I)c(C(=O)N(CCO)CCO)c1I)C(O)CO (centres unmarked) [Example 42, 5-(2,3-Dihydroxypropionylamino)-3-hydroxymethyl-N,N-bis(2-hydroxyethyl)-2,4,6-triiodobenzamide]
Viscosity at 400 mgI/ml (CALCULATED): 12.8 mPas | Viscosity 20° C. (concentration 488 mgI/ml): 34 mPas

O=C(c1c(I)c(CO)c(I)c(N(CCO)C(=O)C(O)CO)c1I)N(CCO)CCO (centres unmarked) [Example 43, 5-[N′-(2-Hydroxyethyl)-2,3-dihydroxypropionylamino]-3-hydroxy-methyl-N,N-bis (2-hydroxyethyl)-2,4,6-triiodobenzamide]
Viscosity at 400 mgI/ml (CALCULATED): 14.2 mPas | Viscosity 20° C. (concentration 488 mgI/ml): 42 mPas

CN(CC(O)CO)C(=O)c1c(I)c(CCO)c(I)c(NC(=O)CO)c1I (centres unmarked) [Example 44, 5-Hydroxyacetamido-3-hydroxyethyl-N-methyl-N-(2,3-dihydroxy-propyl)-2,4,6-triiodobenzamide]
Viscosity at 400 mgI/ml (CALCULATED): 10.8 mPas | Viscosity 20° C. (concentration 481 mgI/ml): 24 mPas

CN(CC(O)CO)C(=O)c1c(I)c(CO)c(I)c(N(CCO)C(=O)CO)c1I (centres unmarked) [Example 45, 5-[N′-(2-Hydroxyethyl)-hydroxyacetamido]-3-hydroxymethyl-N-methyl-N-(2,3-dihydroxypropyl)-2,4,6-triiodobenzamide]
Viscosity at 400 mgI/ml (CALCULATED): 13.9 mPas | Viscosity 20° C. (concentration 483 mgI/ml): 32 mPas

CN(CC(O)CO)C(=O)c1c(I)c(CO)c(I)c(NC(=O)C(O)CO)c1I (centres unmarked) [Example 46]
Viscosity at 400 mgI/ml (CALCULATED): 16.4 mPas | Viscosity 20° C. (concentration 474 mgI/ml): 41 mPas

CN(CC(O)CO)C(=O)c1c(I)c(CO)c(I)c(N(CCO)C(=O)C(O)CO)c1I (centres unmarked) [Example 47, 5-[N′-(2-Hydroxyethyl)-2,3-dihydroxypropionylamino]-3-hydroxymethyl-N-methyl-N-(2,3-dihydroxypropyl)-2,4,6-triiodobenzamide]
Viscosity at 400 mgI/ml (CALCULATED): 16.4 mPas | Viscosity 20° C. (concentration 447 mgI/ml): 28 mPas

O=C(NC(CO)CO)c1c(I)c(CO)c(I)c(N(CCO)C(=O)CO)c1I [Example 49, 5-[N′-(2-Hydroxyethyl)-hydroxyacetamido]-3-hydroxymethyl-N-(1,3-dihydroxyprop-2-yl)-2,4,6-triiodobenzamide]
Viscosity at 400 mgI/ml (CALCULATED): 13.2 mPas | Viscosity 20° C. (concentration 380 mgI/ml): 11 mPas

O=C(NCCO)c1c(I)c(CO)c(I)c(NC(=O)C(O)CO)c1I (centres unmarked) [Example 52, 5-(2,3-Dihydroxypropionylamino)-3-hydroxymethyl-N-(2-hydroxyethyl)-2,4,6-triiodobenzamide]
Viscosity at 400 mgI/ml (CALCULATED): 9.8 mPas | Viscosity 20° C. (concentration 514 mgI/ml): 29 mPas

O=C(NC(CO)(CO)CO)c1c(I)c(CO)c(I)c(N(CCO)C(=O)CO)c1I [Example 55, 5-[N′-(2-Hydroxyethyl)-hydroxyacetamido]-3-hydroxymethyl-N-[tris-(hydroxymethyl)-methyl]-2,4,6-triiodobenzamide]
Viscosity at 400 mgI/ml (CALCULATED): 19.4 mPas | Viscosity 20° C. (concentration 429 mgI/ml): 28 mPas

O=C(C(O)CO)N(CCO)c1c(I)c(CCO)c(I)c(N(CCO)C(=O)C(O)CO)c1I (centres unmarked) [Example 62, 3,5-Bis[N-(2-hydroxyethyl)-2,3-dihydroxypropionylamino]-2,4,6-triiodo-(2-hydroxyethyl)benzene]
Viscosity at 400 mgI/ml (CALCULATED): 14.3 mPas | Viscosity 20° C. (concentration 353 mgI/ml): 9 mPas

O=C(Nc1c(I)c(CC(O)CO)c(I)c(NC(=O)C(O)CO)c1I)C(O)CO (centres unmarked) [Example 64, 3,5-Bis-(2,3-dihydroxypropionylamino)-2,4,6-triiodo-(2,3-dihydroxy-propyl)-benzene]
Viscosity 350 mgI/ml (CALCULATED): 8.3 mPas | Viscosity at 400 mgI/ml (CALCULATED): 13.0 mPas | Viscosity 20° C. (concentration 419 mgI/ml): 16 mPas

CC(O)C(=O)N(CCO)c1c(I)c(CO)c(I)c(C(=O)NC(CO)C(O)CO)c1I (centres unmarked) [Example 65, 5-[N′-(2-Hydroxyethyl)-2-hydroxypropionylamino]-3-hydroxymethyl-N-(1,3,4-trihydroxybut-2-yl)-2,4,6-triiodobenzamide]
Viscosity 350 mgI/ml (CALCULATED): 10.4 mPas | Viscosity at 400 mgI/ml (CALCULATED): 17.8 mPas | Viscosity 20° C. (concentration 413 mgI/ml): 21 mPas

O=C(NCCO)c1c(I)c(CO)c(I)c(N(CC(O)CO)C(=O)C(O)CO)c1I (centres unmarked) [Example 66, 5-[N′-(2,3-Dihydroxypropyl)-2,3-dihydroxypropionylamino]-3-hydroxymethyl-N-(2-hydroxyethyl)-2,4,6-triiodobenzamide]
Viscosity 350 mgI/ml (CALCULATED): 9.3 mPas | Viscosity at 400 mgI/ml (CALCULATED): 15.2 mPas | Viscosity 20° C. (concentration 401 mgI/ml): 15 mPas

O=C(CO)Nc1c(I)c(CO)c(I)c(C(=O)N(CC(O)CO)CC(O)CO)c1I (centres unmarked) [Example 67, 5-(hydroxyacetamido)-3-hydroxymethyl-N,N-bis-(2,3-dihydroxy-propyl)-2,4,6-triiodobenzamide]
Viscosity at 400 mgI/ml (CALCULATED): 16.2 mPas | Viscosity 20° C. (concentration 407 mgI/ml): 18 mPas

O=C(c1c(I)c(CO)c(I)c(N(CCO)C(=O)CO)c1I)N(CC(O)CO)CC(O)CO (centres unmarked) [Example 68, 5-[N′-(2-Hydroxyethyl)-hydroxyacetamido]-3-hydroxymethyl-N,N-bis-(2,3-dihydroxypropyl)-2,4,6-tiiodobenzamide]
Viscosity at 400 mgI/ml (CALCULATED): 19.1 mPas | Viscosity 20° C. (concentration 450 mgI/ml): 31 mPas
